# According to paper PMC5772529 (Scientific Reports, 2018):
# Positions of bridges follow the written chain, without caps; N, C: chain ends. Residues, ends and D or L forms follow the SMILES beside them.
# Assays:
# mice [1] = settings: mouse, in vivo
# mice [2] = settings: mouse, in vivo; remark: listed apart in the source
# rats = settings: rat, in vivo
# Beagle dogs = settings: dog, in vivo
# mice [3] = settings: mouse, in vivo; remark: listed apart in the source
smiles,measurement,setting,value
"CSCC[C@@H]1NC(=O)[C@@H]2CSSC[C@H](NC(=O)CN)C(=O)N[C@@H](CSSC[C@@H](C(N)=O)NC(=O)[C@H](CC(C)C)NC(=O)[C@H](CC(N)=O)NC(=O)[C@@H]3CCCN3C(=O)[C@H](CC(N)=O)NC(=O)[C@H](CCCCN)NC(=O)[C@H](CC(C)C)NC1=O)C(=O)N[C@@H](CO)C(=O)N[C@@H](CC(N)=O)C(=O)N1CCC[C@H]1C(=O)N[C@@H](C)C(=O)N2 [Eu1.6] (H-GCCSNPACMLKNPNLC-NH2; disulfide 2-8, 3-16)",morphine-like addictive symptoms,mice [1],did not exhibit the morphine-like addictive symptoms
same,"morphine-like dependence (naloxone-induced jumping number, weight loss)",mice [1],did not produce morphine-like dependence
same,effects on mice spontaneous locomotor activity,mice [2],no significant effects
same,effects on spontaneous locomotor activity (moving distance and activity time in 6 min),mice [2],no significant effects
same,side-effects in acute tests of rats,rats,did not exhibit any significant side-effects
same,activity at KCNQ1 channels,KCNQ1,no activity
same,effect on cardiac or respiratory function,Beagle dogs,did not show any significant effect
same,effect on the cardiac and respiratory function,Beagle dogs,no significant effect
same,effect on mice motor function,mice [3],did not show any significant effect
